# According to patent publication US20050131238A1, “Spermicides” (SSL International plc, priority 2001, published 2005):
# Experiments:
# ME180 cells = test: Cell cytotoxicity (MTT cell viability assay); type: cell-based; conditions: Homo sapiens, ME-180, concentration giving 50% inhibition of cell viability vs control, ± SEM
# Description: 2. Determination of Cell Cytotoxicity (MTT Cell Viability Assay)
# The effect of compounds on vaginal cell viability is assessed using the MTT assay. MTT is a tetrazolium salt which is converted by viable cells to an insoluble […]. This colour conversion is measured by spectrophotometry. Data is then subjected to non-linear regression analysis to generate concentration response curves and subsequently an EC50 value curves using GraphPad Prism software (San Diego, Calif., USA). The EC50 value is the concentration of spermicide which produces 50% inhibition of cell viability compared to control.
# human sperm = test: Evaluation of human sperm motility (spermicidal efficacy), manual microscopy; type: cell-based; conditions: concentration giving 50% inhibition of sperm motility vs control, motility determined within 30 s by manual microscopy, ± SEM, read-out: Inhibition Human Sperm Motility (ED50)
# Text: 1. Evaluation of Human Sperm Motility (Spermicidal Efficacy)
# The number of motile sperm (%) is rapidly determined (within 30s) following exposure to varying concentrations of spermicide using manual microscopy. Using non-linear regression analysis motility data from these screens is used to generate concentration response curves and subsequently an ED50 value using GraphPad Prism software (San Diego, Calif., USA). The ED50 value is the concentration of spermicide which produces 50% inhibition of sperm motility compared to control.
# sperm = conditions: 10 mM CPhM solution, incubation for 10 minutes; decreased from 80%; cited from earlier work
SMILES,EC50 (ME180 cells) [µM],EC50 (human sperm) [µM],fertilising capacity of sperm (sperm) [%]
O=C1C=CC(=O)N1CCOCCOCCOCCN1C(=O)C=CC1=O [Compound 12],333,10.5,–
O=C1C=CC(=O)N1C1CCCCC1 [Compound 5],114,294,–
COCCOCCOCCOCCOc1ccc(N2C(=O)C=CC2=O)cc1 [Compound 14],285,149,–
O=C1C=CC(=O)N1c1ccc(OCCOCCOCCOCCOc2ccc(N3C(=O)C=CC3=O)cc2)cc1 [Compound 15],153,5,–
O=C1C=CC(=O)N1c1ccc(Nc2ccccc2)cc1 [Compound 4],268,31,–
O=C1C=CC(=O)N1c1ccc2c(c1)OCCO2 [Compound 7],410,43,–
O=C1C=CC(=O)N1CCN1C(=O)C=CC1=O [Compound 10],516,4,–
COC(=O)c1scc(C)c1N1C(=O)C=CC1=O [Compound 6],88,26,–
CCOC(=O)c1ccc(N2C(=O)C=CC2=O)cc1 [Compound 3],363,77,–
O=C1C=CC(=O)N1c1ccc(-c2ccc(N3C(=O)C=CC3=O)cc2)cc1 [Compound 11],> 30,1.4,–
N#Cc1cccc(N2C(=O)C=CC2=O)c1 [Compound 9],143,56,–
"O=C(O)c1ccc(N2C(=O)C=CC2=O)cc1O [CPhM, N-(4-carboxy-3-hydroxy-phenyl)-maleimide]",–,–,17
O=C1C=CC(=O)N1c1ccccc1 [Compound 1],370,32,–
O=C1C=CC(=O)N1c1ccc(OCCOCCOCCOCCOCCOc2ccc(N3C(=O)C=CC3=O)cc2)cc1 [Compound 13],125,4.6,–
Cc1cc(N2C(=O)C=CC2=O)no1 [Compound 8],858,79,–
